From ChEMBL document CHEMBL1201862, “PubChem BioAssay data set” (2004)
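Protocol summary: plate cells (96-well), add compound at 5 concentrations, incubate 48 h, interpolate endpoints linearly. GI50: concentration for 50% inhibition of growth.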 Calls of active or inactive are those of the source. Rule as the data show it: active = GI50 up to about 1.1 µM and inactive = higher.

Experiments:
Test in all cases: NCI tumour cell line growth inhibition, 48 h
786-0 = system: 786-0
A498 = system: A498
A549 = system: A549
ACHN = system: ACHN
CCRF-CEM = system: CCRF-CEM
COLO 205 = system: COLO 205
DLD-1 = system: DLD-1
DMS-114 = system: DMS-114
DMS-273 = system: DMS-273
EKVX = system: EKVX
HCC 2998 = system: HCC 2998
HCT-116 = system: HCT-116
HCT-15 = system: HCT-15
HL-60 = system: HL-60
HOP-18 = system: HOP-18
HOP-62 = system: HOP-62
HOP-92 = system: HOP-92
HT-29 = system: HT-29
IGROV-1 = system: IGROV-1
K562 = system: K562
KM-20L2 = system: KM-20L2
KM12 = system: KM12
LOX IMVI = system: LOX IMVI
LXFL 529 = system: LXFL 529
M14 = system: M14
M19-MEL = system: M19-MEL
MOLT-4 = system: MOLT-4
Malme-3M = system: Malme-3M
NCI-H226 = system: NCI-H226
NCI-H23 = system: NCI-H23
NCI-H460 = system: NCI-H460
NCI-H522 = system: NCI-H522
OVCAR-3 = system: OVCAR-3
OVCAR-5 = system: OVCAR-5
OVCAR-8 = system: OVCAR-8
RPMI-8226 = system: RPMI-8226
SF-268 = system: SF-268
SF-295 = system: SF-295
SF-539 = system: SF-539
SK-MEL-28 = system: SK-MEL-28
SK-MEL-2 = system: SK-MEL-2
SK-MEL-5 = system: SK-MEL-5
SK-OV-3 = system: SK-OV-3
SN12C = system: SN12C
SNB-19 = system: SNB-19
SNB-75 = system: SNB-75
SNB-78 = system: SNB-78
SR = system: SR
SW-620 = system: SW-620
TK-10 = system: TK-10
U-251 = system: U-251
UACC-257 = system: UACC-257
UACC-62 = system: UACC-62
UO-31 = system: UO-31
XF498 = system: XF498
CAKI-1 = system: CAKI-1
RXF 393 = system: RXF 393

CN(C)CC1CCCC(CN(C)C)C1=NOC(=O)c1ccccc1 (stereo unspecified)
GI50 (786-0): > 100 µM (inactive)
GI50 (A498): > 100 µM (inactive)
GI50 (A549): > 100 µM (inactive)
GI50 (ACHN): > 100 µM (inactive)
GI50 (CCRF-CEM): > 100 µM (inactive)
GI50 (COLO 205): > 100 µM (inactive)
GI50 (DLD-1): > 100 µM (inactive)
GI50 (DMS-114): > 100 µM (inactive)
GI50 (DMS-273): > 100 µM (inactive)
GI50 (EKVX): > 100 µM (inactive)
GI50 (HCC 2998): > 100 µM (inactive)
GI50 (HCT-116): > 100 µM (inactive)
GI50 (HCT-15): > 100 µM
GI50 (HL-60): > 100 µM (inactive)
GI50 (HOP-18): > 81.8 µM (inactive)
GI50 (HOP-62): > 100 µM (inactive)
GI50 (HOP-92): > 100 µM (inactive)
GI50 (HT-29): > 100 µM (inactive)
GI50 (IGROV-1): > 100 µM (inactive)
GI50 (K562): > 100 µM (inactive)
GI50 (KM-20L2): > 100 µM (inactive)
GI50 (KM12): > 100 µM (inactive)
GI50 (LOX IMVI): > 100 µM (inactive)
GI50 (LXFL 529): > 100 µM (inactive)
GI50 (M14): > 100 µM (inactive)
GI50 (M19-MEL): > 100 µM (inactive)
GI50 (MOLT-4): > 100 µM (inactive)
GI50 (Malme-3M): > 100 µM (inactive)
GI50 (NCI-H226): > 100 µM (inactive)
GI50 (NCI-H23): > 100 µM (inactive)
GI50 (NCI-H460): > 100 µM (inactive)
GI50 (NCI-H522): > 100 µM (inactive)
GI50 (OVCAR-3): > 100 µM (inactive)
GI50 (OVCAR-5): > 100 µM (inactive)
GI50 (OVCAR-8): > 100 µM (inactive)
GI50 (RPMI-8226): > 100 µM (inactive)
GI50 (SF-268): > 100 µM (inactive)
GI50 (SF-295): > 100 µM (inactive)
GI50 (SF-539): > 100 µM (inactive)
GI50 (SK-MEL-28): > 100 µM (inactive)
GI50 (SK-MEL-2): > 100 µM (inactive)
GI50 (SK-MEL-5): > 100 µM (inactive)
GI50 (SK-OV-3): > 100 µM (inactive)
GI50 (SN12C): > 100 µM (inactive)
GI50 (SNB-19): > 100 µM (inactive)
GI50 (SNB-75): > 56.5 µM (inactive)
GI50 (SNB-78): > 100 µM (inactive)
GI50 (SR): > 100 µM (inactive)
GI50 (SW-620): > 100 µM (inactive)
GI50 (TK-10): > 100 µM (inactive)
GI50 (U-251): > 100 µM (inactive)
GI50 (UACC-257): > 100 µM (inactive)
GI50 (UACC-62): > 100 µM (inactive)
GI50 (UO-31): > 100 µM (inactive)
GI50 (XF498): > 100 µM (inactive)

N#CC(C#N)=Cc1cccc(Oc2ccccc2)c1
GI50 (786-0): 18.6 µM (inactive)
GI50 (A498): > 63.2 µM (inactive)
GI50 (A549): 70.3 µM (inactive)
GI50 (ACHN): 18.2 µM (inactive)
GI50 (CAKI-1): 25.6 µM (inactive)
GI50 (CCRF-CEM): 20.6 µM (inactive)
GI50 (COLO 205): 29 µM (inactive)
GI50 (DLD-1): 22.5 µM (inactive)
GI50 (DMS-114): 26.2 µM (inactive)
GI50 (DMS-273): 19 µM (inactive)
GI50 (EKVX): 54.2 µM (inactive)
GI50 (HCC 2998): 28.4 µM (inactive)
GI50 (HCT-116): 17.1 µM (inactive)
GI50 (HCT-15): 35.1 µM
GI50 (HL-60): 18.5 µM (inactive)
GI50 (HOP-18): 16.7 µM (inactive)
GI50 (HOP-62): 23.4 µM (inactive)
GI50 (HT-29): 22.7 µM (inactive)
GI50 (IGROV-1): 26.8 µM (inactive)
GI50 (K562): 23.7 µM (inactive)
GI50 (KM-20L2): 37.4 µM (inactive)
GI50 (KM12): 22.3 µM (inactive)
GI50 (LOX IMVI): 20.6 µM (inactive)
GI50 (LXFL 529): 18.5 µM (inactive)
GI50 (M14): 19.6 µM (inactive)
GI50 (M19-MEL): 27.5 µM (inactive)
GI50 (MOLT-4): 25 µM (inactive)
GI50 (Malme-3M): 20.1 µM (inactive)
GI50 (NCI-H226): 33 µM (inactive)
GI50 (NCI-H23): 14.9 µM (inactive)
GI50 (NCI-H460): 25.5 µM (inactive)
GI50 (NCI-H522): 21.2 µM (inactive)
GI50 (OVCAR-3): 23 µM (inactive)
GI50 (OVCAR-5): > 67.1 µM (inactive)
GI50 (OVCAR-8): 19.1 µM (inactive)
GI50 (RPMI-8226): 20.9 µM (inactive)
GI50 (RXF 393): 17.7 µM (inactive)
GI50 (SF-268): 19.1 µM (inactive)
GI50 (SF-295): 20.2 µM (inactive)
GI50 (SF-539): 18.4 µM (inactive)
GI50 (SK-MEL-28): 13.8 µM (inactive)
GI50 (SK-MEL-2): 21.2 µM (inactive)
GI50 (SK-MEL-5): 18.9 µM (inactive)
GI50 (SK-OV-3): 71.6 µM (inactive)
GI50 (SN12C): 22.5 µM (inactive)
GI50 (SNB-19): 22 µM (inactive)
GI50 (SNB-75): 29.2 µM (inactive)
GI50 (SNB-78): 29.2 µM (inactive)
GI50 (SR): 8.93 µM (inactive)
GI50 (SW-620): 25.6 µM (inactive)
GI50 (TK-10): 31.7 µM (inactive)
GI50 (U-251): 13.6 µM (inactive)
GI50 (UACC-257): 16.8 µM (inactive)
GI50 (UACC-62): 22.3 µM (inactive)
GI50 (UO-31): 15.9 µM (inactive)
GI50 (XF498): 20.2 µM (inactive)
